Experimental data taken from patent US20130004053A1, “System and method for automatic color segmentation and minimum significant response for measurement of fractional localized intensity of cellular compartments” (Vala Sciences, Inc., priority 2002, published 2013).

Experiments:
[1] = test system: NFκB p65 cytoplasm-to-nucleus translocation in HUVEC cells; test: TNFα-induced NFκB cytoplasm-nucleus translocation in HUVEC (FLIN); type: cell-based, human
Protocol: The cells used in these studies were primary human umbilical vein endothelial cells (HUVEC) obtained from Clonetics Corporation. The cells were maintained in culture under standard conditions and passaged using Clonetics' proprietary EGM medium and reagent system. Since they are not transformed, HUVECs, generally become senescent after nine or ten passages.
Prior to assay, cells were transferred to 96-well plates (Packard black ViewPlate) and incubated overnight to yield cell monolayers that were approximately 25% confluent. Plates used to determine a statistically optimal cell density for the assay were made by seeding wells at 5000, 2500, and 1000 cells per well and incubating overnight. […] Translocation of NFκB from the cytoplasm to the nucleus was assessed by visual examination of sample wells with a confocal microscope system. […]
Fractional Localized Intensity Measurements on TNFα-induced NFκB Cytoplasm-Nucleus Translocation: Immunofluorescent staining of the NFκB p65 regulatory subunit allows for easy characterization of the intercellular NFκB distribution by visual inspection of images acquired during scanning. The majority of fluorescence lies outside the nuclear area in unstimulated cells, while a substantial amount co-locates with the nuclear mask subsequent to maximal stimulation with TNFα (FIG. 11). […]

[2] = test system: NFκB p65 cytoplasm-to-nucleus translocation in HUVEC cells; settings: previous reports [Ding et al.]; cited from earlier work

**Q.** What does the source list for tumor necrosis factor α [TNFα]?
**A.** translocation of labeled NFκB, average ([1]; 200 U/ml TNFα, 15 m, average over cellular densities): 18.80%; gross p65 translocated upon maximal stimulation ([1]; maximal stimulation): ≈ 20%; fraction of p65 to translocate on stimulus, of gross amount in unstimulated cell cytoplasm [2]: 20%
